Patent US9273040B2 (Merck Sharp & Dohme Corp., priority 2011, dated 2016)

Columns and labels:
[1] = target: T1, human Nav1.5 channels stably expressed in HEK 293 cells (Homo sapiens, UniProt Q14524); assay: PatchXpress 7000 automated patch-clamp, sodium current; assay type: cell-based; conditions: selectivity over Nav1.5
T1 construct: expressed in transfected cells
In short: (§1)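 IC50 values came from Hill-equation fits of rundown-corrected inhibition. PatchXpress recordings at 22° C held cells 20 mV negative to V0.5 inact and applied 10 Hz trains of 30 ms steps to −20 mV (Nav1.7) or an 8000 ms prepulse 7 mV positive to V0.5 inact. […]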

[2] = target: T2, human Nav1.7 channels stably expressed in HEK 293 cells (Homo sapiens, UniProt Q15858); assay: as above; assay type: cell-based; conditions: 22° C., read-out: potency for the Nav 1.7 sodium ion channel (as measured by PatchXpress)
T2 construct: expressed in transfected cells
T2 sequence (Q15858 whole entry): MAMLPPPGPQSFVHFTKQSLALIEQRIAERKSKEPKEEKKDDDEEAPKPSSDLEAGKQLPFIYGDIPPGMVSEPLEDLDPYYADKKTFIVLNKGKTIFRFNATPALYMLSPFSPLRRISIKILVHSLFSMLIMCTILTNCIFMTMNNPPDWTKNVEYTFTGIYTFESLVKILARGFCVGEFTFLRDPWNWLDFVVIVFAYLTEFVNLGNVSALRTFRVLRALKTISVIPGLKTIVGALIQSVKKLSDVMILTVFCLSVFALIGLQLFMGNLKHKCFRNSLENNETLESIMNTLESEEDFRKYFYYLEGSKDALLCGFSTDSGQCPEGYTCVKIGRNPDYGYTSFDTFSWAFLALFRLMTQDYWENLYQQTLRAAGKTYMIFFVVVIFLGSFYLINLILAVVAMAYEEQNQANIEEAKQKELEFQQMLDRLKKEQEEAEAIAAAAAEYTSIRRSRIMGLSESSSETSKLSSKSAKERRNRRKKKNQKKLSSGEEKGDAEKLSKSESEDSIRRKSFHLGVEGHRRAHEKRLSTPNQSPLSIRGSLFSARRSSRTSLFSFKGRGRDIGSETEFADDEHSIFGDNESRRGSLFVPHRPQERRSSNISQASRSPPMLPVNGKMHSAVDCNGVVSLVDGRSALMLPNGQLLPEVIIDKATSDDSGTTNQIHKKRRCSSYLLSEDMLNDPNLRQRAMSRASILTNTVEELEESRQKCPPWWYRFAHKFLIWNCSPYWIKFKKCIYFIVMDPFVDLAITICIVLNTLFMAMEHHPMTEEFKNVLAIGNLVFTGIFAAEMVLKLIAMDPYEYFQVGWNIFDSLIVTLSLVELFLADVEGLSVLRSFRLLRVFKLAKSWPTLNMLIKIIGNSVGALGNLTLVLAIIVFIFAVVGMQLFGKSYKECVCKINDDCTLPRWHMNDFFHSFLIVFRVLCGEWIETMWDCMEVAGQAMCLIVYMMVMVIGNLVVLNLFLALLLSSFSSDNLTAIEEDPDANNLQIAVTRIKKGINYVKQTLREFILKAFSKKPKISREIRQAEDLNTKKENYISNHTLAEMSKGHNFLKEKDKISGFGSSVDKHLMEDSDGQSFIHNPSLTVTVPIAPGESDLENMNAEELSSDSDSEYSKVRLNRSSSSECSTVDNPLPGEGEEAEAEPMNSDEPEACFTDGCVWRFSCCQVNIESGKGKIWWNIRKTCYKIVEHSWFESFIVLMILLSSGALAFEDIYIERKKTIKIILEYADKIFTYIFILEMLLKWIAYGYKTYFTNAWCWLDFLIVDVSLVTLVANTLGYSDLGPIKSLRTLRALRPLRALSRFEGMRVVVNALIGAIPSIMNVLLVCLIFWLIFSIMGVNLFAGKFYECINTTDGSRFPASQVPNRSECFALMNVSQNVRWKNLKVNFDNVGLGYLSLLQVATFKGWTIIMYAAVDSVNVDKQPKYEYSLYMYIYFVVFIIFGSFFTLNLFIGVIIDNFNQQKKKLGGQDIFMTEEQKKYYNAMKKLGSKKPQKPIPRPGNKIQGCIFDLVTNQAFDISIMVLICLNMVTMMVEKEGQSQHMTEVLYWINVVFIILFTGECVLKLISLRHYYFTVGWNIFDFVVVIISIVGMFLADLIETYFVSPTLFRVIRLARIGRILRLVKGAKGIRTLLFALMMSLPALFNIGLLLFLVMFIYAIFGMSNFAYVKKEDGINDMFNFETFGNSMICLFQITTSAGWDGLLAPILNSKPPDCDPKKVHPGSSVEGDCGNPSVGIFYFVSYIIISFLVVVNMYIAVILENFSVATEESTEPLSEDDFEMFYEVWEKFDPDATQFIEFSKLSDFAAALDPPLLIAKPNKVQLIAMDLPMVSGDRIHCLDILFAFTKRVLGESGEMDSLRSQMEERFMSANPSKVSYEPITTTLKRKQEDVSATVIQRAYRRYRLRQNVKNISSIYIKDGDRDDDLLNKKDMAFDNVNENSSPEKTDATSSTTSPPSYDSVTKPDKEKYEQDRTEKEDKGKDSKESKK
In short: as §1

T1 sequence (Q14524 whole entry): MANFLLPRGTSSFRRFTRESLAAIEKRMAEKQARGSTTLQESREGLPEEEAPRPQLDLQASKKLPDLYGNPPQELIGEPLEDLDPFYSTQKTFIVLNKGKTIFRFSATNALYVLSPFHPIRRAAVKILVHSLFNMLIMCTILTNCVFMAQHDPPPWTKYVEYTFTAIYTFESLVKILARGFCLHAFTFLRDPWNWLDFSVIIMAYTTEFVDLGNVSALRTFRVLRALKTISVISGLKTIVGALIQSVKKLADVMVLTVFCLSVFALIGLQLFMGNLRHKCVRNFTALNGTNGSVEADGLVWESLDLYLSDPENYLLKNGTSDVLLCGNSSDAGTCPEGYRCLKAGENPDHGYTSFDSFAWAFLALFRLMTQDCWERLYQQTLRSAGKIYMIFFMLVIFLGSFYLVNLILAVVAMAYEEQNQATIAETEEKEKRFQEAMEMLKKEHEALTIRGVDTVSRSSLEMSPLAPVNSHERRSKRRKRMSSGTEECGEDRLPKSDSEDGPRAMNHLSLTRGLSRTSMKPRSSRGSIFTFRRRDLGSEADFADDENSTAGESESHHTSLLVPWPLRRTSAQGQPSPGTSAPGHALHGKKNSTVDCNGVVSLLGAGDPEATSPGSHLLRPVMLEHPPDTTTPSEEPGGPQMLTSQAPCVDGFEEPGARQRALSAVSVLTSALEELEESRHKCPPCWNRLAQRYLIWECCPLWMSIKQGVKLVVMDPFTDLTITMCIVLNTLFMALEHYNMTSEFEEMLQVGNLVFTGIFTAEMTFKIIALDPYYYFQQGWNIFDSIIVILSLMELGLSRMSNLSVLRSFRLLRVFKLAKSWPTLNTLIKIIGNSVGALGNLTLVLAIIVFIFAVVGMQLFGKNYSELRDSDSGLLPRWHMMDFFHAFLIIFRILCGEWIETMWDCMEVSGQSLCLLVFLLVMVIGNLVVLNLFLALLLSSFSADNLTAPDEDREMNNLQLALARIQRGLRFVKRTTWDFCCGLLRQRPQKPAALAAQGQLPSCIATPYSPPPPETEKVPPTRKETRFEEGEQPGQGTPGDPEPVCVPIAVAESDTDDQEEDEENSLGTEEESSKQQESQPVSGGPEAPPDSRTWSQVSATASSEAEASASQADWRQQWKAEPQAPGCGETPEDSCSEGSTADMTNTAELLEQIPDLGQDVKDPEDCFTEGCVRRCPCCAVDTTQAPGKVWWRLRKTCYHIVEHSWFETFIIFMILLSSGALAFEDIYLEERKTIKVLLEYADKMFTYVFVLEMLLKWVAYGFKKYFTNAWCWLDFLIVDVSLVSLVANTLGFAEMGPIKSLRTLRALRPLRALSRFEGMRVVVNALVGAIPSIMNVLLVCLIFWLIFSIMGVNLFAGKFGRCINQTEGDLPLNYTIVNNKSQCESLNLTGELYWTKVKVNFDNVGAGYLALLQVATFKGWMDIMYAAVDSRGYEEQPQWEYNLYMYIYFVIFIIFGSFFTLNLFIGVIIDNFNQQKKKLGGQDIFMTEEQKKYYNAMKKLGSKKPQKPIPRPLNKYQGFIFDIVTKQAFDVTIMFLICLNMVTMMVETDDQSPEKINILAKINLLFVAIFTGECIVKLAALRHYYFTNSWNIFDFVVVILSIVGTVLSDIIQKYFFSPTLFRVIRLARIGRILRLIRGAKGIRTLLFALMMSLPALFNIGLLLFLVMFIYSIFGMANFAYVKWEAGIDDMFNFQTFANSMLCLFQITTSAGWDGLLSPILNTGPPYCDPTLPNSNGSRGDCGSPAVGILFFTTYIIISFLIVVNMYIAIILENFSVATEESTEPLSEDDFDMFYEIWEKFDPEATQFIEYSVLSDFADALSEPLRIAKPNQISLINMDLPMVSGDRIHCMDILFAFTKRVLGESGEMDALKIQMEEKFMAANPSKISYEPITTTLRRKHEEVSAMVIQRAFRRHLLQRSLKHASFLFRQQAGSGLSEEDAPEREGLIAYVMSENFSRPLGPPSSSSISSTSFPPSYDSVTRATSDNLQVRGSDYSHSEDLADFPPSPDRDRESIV

Structure (SMILES) | ratio of Nav 1.5:Nav 1.7 potency, determined by PatchXpress measurement [1] | IC50 [2]
O=c1oc2cc(S(=O)(=O)Nc3ncns3)c(F)cc2n1[C@H]1CC2(CCC2)Oc2ccccc21 [Compound 39-16, 3-[(4S)-3,4-dihydrospiro[chromene-2,1′-cyclobutan]-4-yl]-5-fluoro-2-oxo-N-1,2,4-thiadiazol-5-yl-2,3-dihydro-1,3-benzoxazole-6-sulfonamide] | 149 | 53 nM
O=c1oc2cc(S(=O)(=O)Nc3ncns3)c(F)cc2n1[C@H]1CC2(CCC2)Oc2ccc(F)cc21 [Compound 39-17, 5-fluoro-3-[(4S)-6-fluoro-3,4-dihydrospiro[chromene-2,1′-cyclobutan]-4-yl]-2-oxo-N-1,2,4-thiadiazol-5-yl-2,3-dihydro-1,3-benzoxazole-6-sulfonamide] | 115 | 53 nM
Cc1csc(NS(=O)(=O)c2ccc3c(c2)oc(=O)n3C(C)c2ccccc2)n1 (stereo not shown) [Compound 40-5, N-(4-methyl-1,3-thiazol-2-yl)-2-oxo-3-(1-phenylethyl)-2,3-dihydro-1,3-benzoxazole-6-sulfonamide] | 25 | 1190 nM
C[C@H](c1ccccc1)n1c(=O)oc2cc(S(=O)(=O)Nc3nccs3)ccc21 [Compound 41-4, (R)-2-oxo-3-(1-phenylethyl)-N-(thiazol-2-yl)-2,3-dihydrobenzo[d]oxazole-6-sulfonamide] | 187 | 161 nM
COC(=O)[C@H](c1ccccc1)n1c(=O)oc2cc(S(=O)(=O)Nc3nccs3)ccc21 [Compound 41-6, methyl (2S)-[2-oxo-6-(1,3-thiazol-2-ylsulfamoyl)-1,3-benzoxazol-3(2H)-yl](phenyl)ethanoate] | 54 | 553 nM
C[C@H](c1cccc2c1CNCC2)n1c(=O)oc2cc(S(=O)(=O)Nc3nccs3)ccc21 [Compound 42-1, (R)-2-oxo-3-(1-(1,2,3,4-tetrahydroisoquinolin-8-yl)ethyl)-N-(thiazol-2-yl)-2,3-dihydrobenzo[d]oxazole-6-sulfonamide] | 1017 | 30 nM
C[C@H](c1ccccc1)n1c(=O)oc2cc(S(=O)(=O)Nc3nccs3)c(F)cc21 [Compound 43-2, (R)-5-fluoro-2-oxo-3-(1-phenylethyl)-N-(thiazol-2-yl)-2,3-dihydrobenzo[d]oxazole-6-sulfonamide] | 88 | 68 nM
O=c1oc2cc(S(=O)(=O)Nc3nccs3)c(F)cc2n1C1CCCc2ccncc21 (stereo not shown) [Compound 43-3, 5-fluoro-2-oxo-3-(5,6,7,8-tetrahydroisoquinolin-8-yl)-N-1,3-thiazol-2-yl-2,3-dihydro-1,3-benzoxazole-6-sulfonamide] | 91 | 550 nM
O=c1oc2cc(S(=O)(=O)Nc3nccs3)c(F)cc2n1C1CCCc2cccnc21 (stereo not shown) [Compound 43-4, 5-fluoro-2-oxo-3-(5,6,7,8-tetrahydroquinolin-8-yl)-N-1,3-thiazol-2-yl-2,3-dihydro-1,3-benzoxazole-6-sulfonamide] | 71 | 424 nM
O=c1oc2cc(S(=O)(=O)Nc3nccs3)c(F)cc2n1C1CCCc2ccc(Cl)nc21 (stereo not shown) [Compound 43-5, 3-(2-chloro-5,6,7,8-tetrahydroquinolin-8-yl)-5-fluoro-2-oxo-N-1,3-thiazol-2-yl-2,3-dihydro-1,3-benzoxazole-6-sulfonamide] | 202 | 416 nM
O=c1oc2cc(S(=O)(=O)Nc3nccs3)c(F)cc2n1Cc1cccc(Br)c1 [Compound 43-6, 3-(3-bromobenzyl)-5-fluoro-2-oxo-N-1,3-thiazol-2-yl-2,3-dihydro-1,3-benzoxazole-6-sulfonamide] | 80 | 162 nM
Cc1ccc2c(c1)C(n1c(=O)oc3cc(S(=O)(=O)Nc4nccs4)c(F)cc31)CCC2 (stereo not shown) [Compound 43-7, 5-fluoro-3-(7-methyl-1,2,3,4-tetrahydronaphthalen-1-yl)-2-oxo-N-1,3-thiazol-2-yl-2,3-dihydro-1,3-benzoxazole-6-sulfonamide] | 137 | 111 nM
O=c1oc2cc(S(=O)(=O)Nc3nccs3)c(F)cc2n1C1CCCc2c(F)cccc21 (stereo not shown) [Compound 43-8, 5-fluoro-3-(5-fluoro-1,2,3,4-tetrahydronaphthalen-1-yl)-2-oxo-N-1,3-thiazol-2-yl-2,3-dihydro-1,3-benzoxazole-6-sulfonamide] | 75 | 71 nM
O=c1oc2cc(S(=O)(=O)Nc3nccs3)c(F)cc2n1C1CCCc2c(F)cc(F)cc21 (stereo not shown) [Compound 43-9, 3-(5,7-difluoro-1,2,3,4-tetrahydronaphthalen-1-yl)-5-fluoro-2-oxo-N-1,3-thiazol-2-yl-2,3-dihydro-1,3-benzoxazole-6-sulfonamide] | 95 | 67 nM
O=c1oc2cc(S(=O)(=O)Nc3nccs3)c(F)cc2n1C1CC2(CCC2)Oc2ccc(Br)cc21 (stereo not shown) [Compound 43-10, 3-(6-bromo-3,4-dihydrospiro[chromene-2,1′-cyclobutan]-4-yl)-5-fluoro-2-oxo-N-1,3-thiazol-2-yl-2,3-dihydro-1,3-benzoxazole-6-sulfonamide] | 29 | 58 nM
O=c1oc2cc(S(=O)(=O)Nc3nccs3)c(F)cc2n1C1CC2(CCC2)Oc2ccc(F)cc21 (stereo not shown) [Compound 43-11, 5-fluoro-3-(6-fluoro-3,4-dihydrospiro[chromene-2,1′-cyclobutan]-4-yl)-2-oxo-N-1,3-thiazol-2-yl-2,3-dihydro-1,3-benzoxazole-6-sulfonamide] | 196 | 41 nM
O=c1oc2cc(S(=O)(=O)Nc3nccs3)c(F)cc2n1C1CCCc2ccc(F)cc21 (stereo not shown) [Compound 43-12, 5-fluoro-3-(7-fluoro-1,2,3,4-tetrahydronaphthalen-1-yl)-2-oxo-N-1,3-thiazol-2-yl-2,3-dihydro-1,3-benzoxazole-6-sulfonamide] | 145 | 30 nM
Nc1cccc2c1CCCC2n1c(=O)oc2cc(S(=O)(=O)Nc3nccs3)c(F)cc21 (stereo not shown) [Compound 43-13, 3-(5-amino-1,2,3,4-tetrahydronaphthalen-1-yl)-5-fluoro-2-oxo-N-1,3-thiazol-2-yl-2,3-dihydro-1,3-benzoxazole-6-sulfonamide] | 74 | 405 nM
Nc1ccc2c(c1)C(n1c(=O)oc3cc(S(=O)(=O)Nc4nccs4)c(F)cc31)CCC2 (stereo not shown) [Compound 43-14, 3-(7-amino-1,2,3,4-tetrahydronaphthalen-1-yl)-5-fluoro-2-oxo-N-1,3-thiazol-2-yl-2,3-dihydro-1,3-benzoxazole-6-sulfonamide] | 724 | 140 nM
C[C@H](c1cccc2c1CNCC2)n1c(=O)oc2cc(S(=O)(=O)Nc3nccs3)c(F)cc21 [Compound 43-15, 5-fluoro-2-oxo-3-[(1R)-1-(1,2,3,4-tetrahydroisoquinolin-8-yl)ethyl]-N-1,3-thiazol-2-yl-2,3-dihydro-1,3-benzoxazole-6-sulfonamide] | 147 | 80 nM
Nc1ccc2c(c1)C(n1c(=O)oc3cc(S(=O)(=O)Nc4nccs4)c(F)cc31)CCC2 (stereo not shown) [Compound 43-16, 3-(7-amino-1,2,3,4-tetrahydronaphthalen-1-yl)-5-fluoro-2-oxo-N-1,3-thiazol-2-yl-2,3-dihydro-1,3-benzoxazole-6-sulfonamide] | 329 | 211 nM
C[C@@H](c1cccc2cncn12)n1c(=O)oc2cc(S(=O)(=O)Nc3nccs3)c(F)cc21 [Compound 43-17, 5-fluoro-3-[(1S)-1-imidazo[1,5-a]pyridin-5-ylethyl]-2-oxo-N-1,3-thiazol-2-yl-2,3-dihydro-1,3-benzoxazole-6-sulfonamide] | 48 | 621 nM
C[C@H](c1cccc2cncn12)n1c(=O)oc2cc(S(=O)(=O)Nc3nccs3)c(F)cc21 [Compound 43-18, 5-fluoro-3-[(1R)-1-imidazo[1,5-a]pyridin-5-ylethyl]-2-oxo-N-1,3-thiazol-2-yl-2,3-dihydro-1,3-benzoxazole-6-sulfonamide] | 139 | 215 nM
C[C@H](c1ccccc1C#CCN)n1c(=O)oc2cc(S(=O)(=O)Nc3nccs3)c(F)cc21 [Compound 43-19, 3-{(1R)-1-[2-(3-aminoprop-1-yn-1-yl)phenyl]ethyl}-5-fluoro-2-oxo-N-1,3-thiazol-2-yl-2,3-dihydro-1,3-benzoxazole-6-sulfonamide] | 1267 | 29 nM
C[C@@H](c1ccccc1C1CNC1)n1c(=O)oc2cc(S(=O)(=O)Nc3nccs3)c(F)cc21 [Compound 43-20, 3-[(1S)-1-(2-azetidin-3-ylphenyl)ethyl]-5-fluoro-2-oxo-N-1,3-thiazol-2-yl-2,3-dihydro-1,3-benzoxazole-6-sulfonamide] | 48 | 621 nM
C[C@H](c1ccccc1C1CNC1)n1c(=O)oc2cc(S(=O)(=O)Nc3nccs3)c(F)cc21 [Compound 43-21, 3-[(1R)-1-(2-azetidin-3-ylphenyl)ethyl]-5-fluoro-2-oxo-N-1,3-thiazol-2-yl-2,3-dihydro-1,3-benzoxazole-6-sulfonamide] | 1164 | 18 nM
